Read-outs that look alike come from different tables or passages of the source.
Assays:
[1] = cited from earlier work
[2] = in vitro-permeation test through Heat Separated Human Epidermis (HSHE), Hanson Vertical Diffusion Cells; assay type: in vitro ADME; details: Formulation 3
Procedure: In a 10 mL flask with a stopper, 100 mg of vardenafil (base; from LGM Pharma) and 400 mg of isopropylmyristate were mixed with 9.5 g of 2-propanol/water (70% v/v) and shaken for 10 minutes at ambient temperature to obtain the formulation below. The resulting crystal free formulation was subjected to an in vitro-permeation test through Heat Separated Human Epidermis (HSHE), which is highly predictive for in vivo-transdermal flux rates.
Permeation experiments were conducted in duplicate (using 2 cells) following a Standard Operating Procedure for using Hanson Vertical Diffusion Cells (7 mL) mounted with Heat Separated Human Epidermis, an in vitro-experiment with high predictability for transdermal in vivo-fluxes. […]
200 mg of the formulation were applied on each Heat Separated Human Epidermis. […] Samples were withdrawn at predetermined time intervals (see Tables 1 and 2 below) and subjected to HPLC quantification of vardenafil (V).
Permeation experiments were conducted following a Standard Operating Procedure for using Hanson Vertical Diffusion Cells (7 mL) mounted with Heat Separated Human Epidermis, an in vitro-experiment with high predictability for transdermal in vivo-fluxes. […] Samples were withdrawn at predetermined time intervals (see Table 3 below) and subjected to HPLC quantification of vardenafil (V). […]

[3] = cited from earlier work; remark: listed apart in the source
[4] = Calculation of required transdermal flux rates for the once daily treatment of erectile dysfunction (ED); details: human

For `CCCc1nn(C)c2c(=O)[nH]c(-c3cc(S(=O)(=O)N4CCN(C)CC4)ccc3OCC)nc12` [sildenafil], the “log P” value ([1]; Table 12) is listed as 1.9.

For `CN1CC(=O)N2[C@H](c3ccc4c(c3)OCO4)c3[nH]c4ccccc4c3C[C@@H]2C1=O` [tadalafil], the “log P” value ([1]; Table 12) is listed as 1.7.

For `C[C@]12CC[C@H]3[C@@H](CCC4=CC(=O)CC[C@@]43C)[C@@H]1CC[C@@H]2O` [testosterone], the “log P” value [1] is given as 3.4.

In the case of `CCCc1nc(C)c2c(=O)[nH]c(-c3cc(S(=O)(=O)N4CCN(CC)CC4)ccc3OCC)nn12` [vardenafil], the “transdermal flux rate achieved (formulation)” value [2] is given as 27 μg/cm^2 μg/cm^2 over 24 h, the plasma half-life ([3]; after oral administration) is given as “approximately 3 h” and the “median time to reach maximum concentration in plasma” value ([3]; oral administration, fasted state (Staxyn prescribing information)) is given as 1.5 h. For the same compound, the absolute bioavailability ([3]; upon oral dosing in man) was “approximately 15%”, the “systemically available required dose for once daily treatment of ED (calculated)” value [4] was 0.75 mg and the “calculated transdermal flux rates required to deliver systemic doses for treatment of ED upon application on 200 cm^2” value ([4]; 24 h) was 3.8 μg/cm^2 μg/cm^2 over 24 h. The “log P” value ([1]; Table 12) was 1.4 and the “log P” value [1] was 1.4.

Reference: patent US20170014417A1, “PHARMACEUTICAL ADMINISTRATION SYSTEM FOR THE TRANSDERMAL APPLICATION OF VARDENAFIL” (LIPP LIFE SCIENCES LLC, priority 2015, published 2017)
